# Biological target: T1, SHP2 (Homo sapiens, UniProt Q06124)
# T1 sequence (Q06124 1-593): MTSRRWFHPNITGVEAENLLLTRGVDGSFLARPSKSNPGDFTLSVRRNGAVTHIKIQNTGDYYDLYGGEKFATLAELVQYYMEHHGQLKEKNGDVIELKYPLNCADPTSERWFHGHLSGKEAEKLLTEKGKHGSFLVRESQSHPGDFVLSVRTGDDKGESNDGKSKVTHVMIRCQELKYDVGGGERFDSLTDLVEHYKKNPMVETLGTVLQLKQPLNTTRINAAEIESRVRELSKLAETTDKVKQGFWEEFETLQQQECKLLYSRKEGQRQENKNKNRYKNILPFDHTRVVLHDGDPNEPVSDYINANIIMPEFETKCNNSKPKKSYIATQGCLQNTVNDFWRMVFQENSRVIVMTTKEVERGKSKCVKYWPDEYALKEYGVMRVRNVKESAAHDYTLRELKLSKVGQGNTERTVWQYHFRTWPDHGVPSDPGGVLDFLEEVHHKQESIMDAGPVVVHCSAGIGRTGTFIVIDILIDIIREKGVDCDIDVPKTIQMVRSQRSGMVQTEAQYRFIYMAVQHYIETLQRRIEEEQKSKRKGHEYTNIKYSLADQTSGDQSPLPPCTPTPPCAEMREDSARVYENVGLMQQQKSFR
# Experiment: SHP2 allosteric inhibitor enzyme activity assay (DiFMUP fluorescence)
# Format: biochemical
# Conditions: class symbols
# Method in brief: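 SHP2 activated by 0.5 μM IRS1_pY1172(dPEG8)pY1222 peptide, 0.2 ng enzyme per well, 1 h at room temperature with compound (1 μM top, 3-fold series), then DiFMUP substrate 1 h. Buffer: 60 mM HEPES, 75 mM NaCl, 75 mM KCl, 0.05% BRIJ-35, 1 mM EDTA, 5 mM DTT. Fluorescence ex 340/em 450 nm; IC50 by variable-slope fit.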
row,Compound,IC50 [nM]
1,"Cn1cc2c(n1)CC(C)(C)C=C2c1n[nH]c2nc(N3CCC4(CC3)Cc3ccccc3[C@H]4N)[nH]c(=O)c12 [Example 153, (S)-6-(1-amino-1,3-dihydrospiro[indene-2,4′-piperidin]-1′-yl)-3-(2,6,6-trimethyl-6,7-dihydro-2H-indazol-4-yl)-1,5-dihydro-4H-pyrazolo[3,4-d]pyrimidin-4-one]",≤ 20
2,"CC(=O)N1CC(F)(F)c2c1cccc2C1(c2n[nH]c3nc(N4CCC5(CC4)Cc4ccccc4[C@H]5N)[nH]c(=O)c23)CC1 [Example 60, (S)-3-(1-(1-acetyl-3,3-difluoroindolin-4-yl)cyclopropyl)-6-(1-amino-1,3-dihydrospiro[indene-2,4′-piperidin]-1′-yl)-1,5-dihydro-4H-pyrazolo[3,4-d]pyrimidin-4-one]",≤ 20
3,"CC1(C)C=C(c2n[nH]c3nc(N4CCC5(CC4)Cc4ccccc4[C@H]5N)[nH]c(=O)c23)c2cc(Br)cnc2C1 [Example 160, (S)-6-(1-amino-1,3-dihydrospiro[indene-2,4′-piperidin]-1′-yl)-3-(3-bromo-7,7-dimethyl-7,8-dihydroquinolin-5-yl)-1,5-dihydro-4H-pyrazolo[3,4-d]pyrimidin-4-one]",≤ 20
4,"N[C@@H]1c2ccccc2CC12CCN(c1nc3[nH]nc(C4=CCOc5ccc(Cl)cc54)c3c(=O)[nH]1)CC2 [Example 135, (S)-6-(1-amino-1,3-dihydrospiro[indene-2,4′-piperidin]-1′-yl)-3-(6-chloro-2H-chromen-4-yl)-1,5-dihydro-4H-pyrazolo[3,4-d]pyrimidin-4-one]",≤ 20
5,"N[C@@H]1c2ccccc2CC12CCN(c1nc3[nH]nc(C4(c5ccnc(NC6CCC6)c5Cl)CC4)c3c(=O)[nH]1)CC2 [Example 67, (S)-6-(1-amino-1,3-dihydrospiro[indene-2,4′-piperidin]-1′-yl)-3-(1-(3-chloro-2-(cyclobutylamino)pyridin-4-yl)cyclopropyl)-1,5-dihydro-4H-pyrazolo[3,4-d]pyrimidin-4-one]",≤ 20
6,"N[C@@H]1c2ccccc2CC12CCN(c1nc3[nH]nc(C4=CCC(F)(F)c5ccccc54)c3c(=O)[nH]1)CC2 [Example 123, (S)-6-(1-amino-1,3-dihydrospiro[indene-2,4′-piperidin]-1′-yl)-3-(4,4-difluoro-3,4-dihydronaphtlialen-1-yl)-1,5-dihydro-4H-pyrazolo[3,4-d]pyrimidin-4-one]",≤ 20
7,"Cn1ccc(C2(c3n[nH]c4nc(N5CCC6(CC5)Cc5ccccc5[C@H]6N)[nH]c(=O)c34)CC2)c(Cl)c1=O [Example 73, (S)-6-(1-amino-1,3-dihydrospiro[indene-2,4′-piperidin]-1′-yl)-3-(1-(3-chloro-1-methyl-2-oxo-1,2-dihydropyridin-4-yl)cyclopropyl)-1,5-dihydro-4H-pyrazolo[3,4-d]pyrimidin-4-one]",≤ 20
8,"Cn1ccc2c1CCC=C2c1n[nH]c2nc(N3CCC4(CC3)Cc3ccccc3[C@H]4N)[nH]c(=O)c12 [Example 120, (S)-6-(1-amino-1,3-dihydrospiro[indene-2,4′-piperidin]-1′-yl)-3-(1-methyl-6,7-dihydro-1H-indol-4-yl)-1,5-dihydro-4H-pyrazolo[3,4-d]pyrimidin-4-one]",≤ 20
9,"N[C@@H]1c2ccccc2CC12CCN(c1nc3[nH]nc(C4(c5ccccc5Cl)CC4)c3c(=O)[nH]1)CC2 [Example 12, (S)-6-(1-amino-1,3-dihydrospiro[indene-2,4′-piperidin]-1′-yl)-3-(1-(2-chlorophenyl)cyclopropyl)-1,5-dihydro-4H-pyrazolo[3,4-d]pyrimidin-4-one]",≤ 20
10,"N[C@@H]1c2ccccc2CC12CCN(c1nc3[nH]nc(C4(c5ccccc5)CCC4)c3c3nncn13)CC2 [Example 92, (S)-1′-(9-(1-phenylcyclobutyl)-7H-pyrazolo[4,3-e][1,2,4]triazolo[4,3-c]pyrimidin-5-yl)-1,3-dihydrospiro[indene-2,4′-piperidin]-1-amine]",≤ 20
11,"N[C@@H]1c2ccccc2CC12CCN(c1nc3[nH]nc(C4(c5ccnc(OC(F)F)c5)CC4)c3c(=O)[nH]1)CC2 [Example 53, (S)-6-(1-amino-1,3-dihydrospiro[indene-2,4′-piperidin]-1′-yl)-3-(1-(2-(difluoromethoxy)pyridin-4-yl)cyclopropyl)-1,5-dihydro-4H-pyrazolo[3,4-d]pyrimidin-4-one]",≤ 20
12,N#Cc1ccc2c(c1)C(c1n[nH]c3nc(N4CCC5(CC4)Cc4ccccc4C5N)[nH]c(=O)c13)=CCC2(F)F (stereo not drawn) [Example 126],≤ 20

# Other lines, results leading:
row,IC50 [nM],Compound
1,> 60,"C[C@@H]1OCC2(CCN(C3=NC4=NCCN4C(N)=C3C3(c4ccccc4)CC3)CC2)[C@@H]1N [Example 266, (3S,4S)-8-(5-amino-6-(1-phenylcyclopropyl)-2,3-dihydroimidazo[1,2-a]pyrimidin-7-yl)-3-methyl-2-oxa-8-azaspiro[4.5]decan-4-amine]"
2,≤ 20,"N[C@@H]1c2ccccc2CC12CCN(c1nc3[nH]nc(C4(c5cccc(C6CC6)c5)CC4)c3c(=O)[nH]1)CC2 [Example 218, (S)-6-(1-amino-1,3-dihydrospiro[indene-2,4′-piperidin]-1′-yl)-3-(1-(3-cyclopropylphenyl)cyclopropyl)-1,5-dihydro-4H-pyrazolo[3,4-d]pyrimidin-4-one]"
3,20 to 60,"C[C@@H]1OCC2(CCN(c3cnc4c(C5(c6ccsc6)CC5)n[nH]c4n3)CC2)[C@@H]1N [Example 268, (3S,4S)-3-methyl-8-(3-(1-(thiophen-3-yl)cyclopropyl)-1H-pyrazolo[3,4-b]pyrazin-6-yl)-2-oxa-8-azaspiro[4.5]decan-4-amine]"
4,≤ 20,"N[C@@H]1c2cccnc2CC12CCN(c1nc3[nH]nc(C4(c5ccccc5)CC4)c3c(=O)[nH]1)CC2 [Example 200, (S)-6-(5-amino-5,7-dihydrospiro[cyclopenta[b]pyridine-6,4′-piperidin]-1-yl)-3-(1-phenylcyclopropyl)-1,5-dihydro-4H-pyrazolo[3,4-d]pyrimidin-4-one]"
5,≤ 20,"CC1(C)Cc2nc(C(F)(F)F)ccc2C(c2n[nH]c3nc(N4CCC5(CC4)Cc4ccccc4[C@H]5N)[nH]c(=O)c23)=C1F [Example 189, (S)-6-(1-amino-1,3-dihydrospiro[indene-2,4′-piperidin]-1′-yl)-3-(6-fluoro-7,7-dimethyl-2-(trifluoromethyl)-7,8-dihydroquinolin-5-yl)-1,5-dihydro-4H-pyrazolo[3,4-d]pyrimidin-4-one]"
6,20 to 60,"C[C@@H]1OCC2(CCN(c3nc4[nH]nc(C5(c6ccnc(N)c6Cl)CC5)c4c(=O)[nH]3)CC2)[C@@H]1N [Example 291, 3-(1-(2-amino-3-chloropyridin-4-yl)cyclopropyl)-6-((3S,4S)-4-amino-3-methyl-2-oxa-8-azaspiro[4.5]decan-8-yl)-1,5-dihydro-4H-pyrazolo[3,4-d]pyrimidin-4-one]"
7,20 to 60,"Cc1cccc(C2(c3n[nH]c4nc(N5CCC6(CC5)CO[C@@H](C)[C@H]6N)[nH]c(=O)c34)CC2)c1 [Example 301, 6-((3S,4S)-4-amino-3-methyl-2-oxa-8-azaspiro[4.5]decan-8-yl)-3-(1-(m-tolyl)cyclopropyl)-1,5-dihydro-4H-pyrazolo[3,4-d]pyrimidin-4-one]"
8,20 to 60,"C[C@@H]1OCC2(CCN(c3nc4[nH]nc(C5(c6ccc(F)cc6)CC5)c4c(=O)[nH]3)CC2)[C@@H]1N [Example 292, 6-((3S,4S)-4-amino-3-methyl-2-oxa-8-azaspiro[4.5]decan-8-yl)-3-(1-(4-fluorophenyl)cyclopropyl)-1,5-dihydro-4H-pyrazolo[3,4-d]pyrimidin-4-one]"
9,> 60,"Cc1nc(N2CCC3(CC2)CO[C@@H](C)[C@H]3N)c(CO)nc1C1(c2ccccc2)CC1 [Example 261, (3-((3S,4S)-4-amino-3-methyl-2-oxa-8-azaspiro[4.5]decan-8-yl)-5-methyl-6-(1-phenylcyclopropyl)pyrazin-2-yl)methanol]"
10,> 60,"COc1cc(C2(c3n[nH]c4nc(N5CCC6(CC5)CO[C@@H](C)[C@H]6N)[nH]c(=O)c34)CC2)ccc1F [Example 289, 6-((3S,4S)-4-amino-3-methyl-2-oxa-8-azaspiro[4.5]decan-8-yl)-3-(1-(4-fluoro-3-methoxyphenyl)cyclopropyl)-1,5-dihydro-4H-pyrazolo[3,4-d]pyrimidin-4-one]"
11,≤ 20,"N#Cc1nnc(C2(c3n[nH]c4nc(N5CCC6(CC5)Cc5ccccc5[C@H]6N)[nH]c(=O)c34)CC2)s1 [Example 238, (S)-5-(1-(6-(1-amino-1,3-dihydrospiro[indene-2,4′-piperidin]-1′-yl)-4-oxo-4,5-dihydro-1H-pyrazolo[3,4-d]pyrimidin-3-yl)cyclopropyl)-1,3,4-thiadiazole-2-carbonitrile]"
12,20 to 60,"N[C@@H]1COCC12CCN(c1nc3[nH]nc(C4(c5nc6ccccc6o5)CC4)c3c(=O)[nH]1)CC2 [Example 282, (S)-6-(4-amino-2-oxa-8-azaspiro[4.5]decan-8-yl)-3-(1-(benzo[d]oxazol-2-yl)cyclopropyl)-1,5-dihydro-4H-pyrazolo[3,4-d]pyrimidin-4-one]"
